The source of these data is ChEMBL document CHEMBL1201862, “PubChem BioAssay data set” (2004).

Test systems include SN12C; CAKI-1; KM12; SK-MEL-5; K562; EKVX; UO-31; SF-268; 786-0; SK-MEL-28; NCI/ADR-RES; UACC-62; Hs-578T; RPMI-8226; HT-29; HL-60; M19-MEL; NCI-H226; OVCAR-8; SNB-75.
Assay in all cases: NCI tumour cell line growth inhibition, 48 h

Each structure is given as a SMILES string.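 Each compound was tested at five concentrations against cells in 96-well plates for 48 hours. GI50: concentration for 50% inhibition of growth.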 Calls of active or inactive are those of the source. No stated cut-off is given here; in the data, active = GI50 up to about 1.1 µM and inactive = higher.

For `O=c1c2ccccc2sc2nc(CCl)nn12`, the GI50 with SN12C was 9.08 µM (inactive); in the test on CAKI-1 it was 7.82 µM (inactive); with KM12, > 100 µM (inactive); with SK-MEL-5, > 100 µM (inactive); with K562, 2.32 µM (inactive); in the test on EKVX, 16 µM (inactive). In addition, the GI50 with UO-31 was 8.28 µM (inactive); in the test with SF-268 it was 20.2 µM (inactive); in the test with 786-0 it was 12.4 µM (inactive); in the test on SK-MEL-28, 10.8 µM (inactive); in the test on NCI/ADR-RES, > 100 µM (inactive); in the test with UACC-62, 5.46 µM (inactive). Also, the GI50 in the test on Hs-578T was 2.17 µM (inactive); in the test on RPMI-8226, > 97.5 µM (inactive); in the test on HT-29, 12.4 µM (inactive); with HL-60 it was 14.5 µM (inactive); in the test with M19-MEL, 19.7 µM (inactive); in the test with NCI-H226, > 100 µM (inactive). Besides, the results for the GI50 with OVCAR-8 and in the test with SNB-75 were > 100 µM (inactive) and 19.2 µM (inactive), respectively.

Consider `CC1(C)C=N[N+]2(C)C3C=CC(CC3)C12` (stereo not given), for which the GI50 in the test with SN12C, in the test on CAKI-1, in the test on KM12, in the test on SK-MEL-5, in the test on K562 and in the test on EKVX was > 100 µM (inactive) throughout. Moreover, the GI50 with UO-31, with SF-268, in the test on 786-0, with SK-MEL-28, with UACC-62 and with RPMI-8226 was > 100 µM (inactive) in each case. The GI50 in the test on HT-29, with HL-60, in the test on M19-MEL, in the test with NCI-H226, in the test with OVCAR-8 and with SNB-75 was > 100 µM (inactive) each time.

In the case of `O=C(O)c1ccccc1NC(=O)C1CCCCC1`, the GI50 with SN12C, with KM12, with SK-MEL-5, with K562, with EKVX and with UO-31 was > 100 µM (inactive) each time. Further, the GI50 with SF-268, with 786-0, in the test on SK-MEL-28, in the test with UACC-62, with RPMI-8226 and with HT-29 was > 100 µM (inactive) in each case. Moreover, the GI50 with HL-60, with M19-MEL, in the test on NCI-H226, with OVCAR-8 and in the test with SNB-75 was > 100 µM (inactive) in each case.

For `COC(=O)/C(=N\NC(=O)C[N+](C)(C)C)C(C(=O)OC)C(=O)C(=O)Nc1ccccc1C(N)=O` (stereo not given), the GI50 in the test with SN12C, with CAKI-1, in the test on KM12, in the test on SK-MEL-5, in the test on K562 and with EKVX was > 100 µM (inactive) each time. Further, the GI50 in the test with UO-31, in the test with SF-268, in the test on 786-0, in the test with SK-MEL-28, with UACC-62 and in the test on RPMI-8226 was > 100 µM (inactive) in each case. Moreover, the GI50 with HT-29, with HL-60, in the test with M19-MEL, in the test with NCI-H226 and with SNB-75 was > 100 µM (inactive) each time.

With `Cn1ccnc1CCc1ccc(Cl)c(Cl)c1`, the GI50 was > 100 µM (inactive) in the test on SN12C; > 100 µM (inactive) in the test with CAKI-1; > 100 µM (inactive) with KM12; 37.5 µM (inactive) with SK-MEL-5; 54.7 µM (inactive) in the test on K562; 50.5 µM (inactive) in the test on UO-31. Also, the GI50 in the test with SF-268 was > 100 µM (inactive); in the test on 786-0, > 100 µM (inactive); in the test on SK-MEL-28, > 100 µM (inactive); in the test with UACC-62, > 100 µM (inactive); in the test on RPMI-8226, > 100 µM (inactive); in the test on HT-29, 86.7 µM (inactive). For the same compound, the GI50 is 69 µM (inactive) with HL-60; > 100 µM (inactive) in the test on M19-MEL; > 100 µM (inactive) in the test with NCI-H226; > 100 µM (inactive) in the test on OVCAR-8; 37.3 µM (inactive) in the test on SNB-75.

In the case of `N#CCCN(CCC#N)c1ccc(C(=O)NN)cc1`, the GI50 with SN12C, with CAKI-1, in the test with KM12, in the test on SK-MEL-5, in the test with K562 and in the test with EKVX was > 100 µM (inactive) in each case. For the same compound, the GI50 with UO-31, in the test with SF-268, in the test on 786-0, with SK-MEL-28, with UACC-62 and with RPMI-8226 was > 100 µM (inactive) in each case. In addition, the GI50 in the test on HT-29, in the test on HL-60, with M19-MEL, in the test with NCI-H226, in the test on OVCAR-8 and in the test on SNB-75 was > 100 µM (inactive) in each case.

As to `CC(C)(C)N1CC1CNC(=O)C(=O)NCC1CN1C(C)(C)C` (stereo not given), the GI50 in the test on SN12C is 2.33 µM (inactive); in the test with CAKI-1, 6.31 µM (inactive); in the test on KM12, 4.74 µM (inactive); in the test with SK-MEL-5, 16.7 µM (inactive); in the test with K562, 3.79 µM (inactive); in the test with EKVX, 14.2 µM (inactive). The GI50 in the test on UO-31 is 6.61 µM (inactive); in the test on SF-268, 3.03 µM (inactive); in the test with 786-0 it was 1.4 µM (inactive); in the test with SK-MEL-28, 5.42 µM (inactive); in the test on NCI/ADR-RES it was 2.55 µM (inactive); in the test on UACC-62, 2.18 µM (inactive). In addition, the GI50 with Hs-578T is 91 µM (inactive); in the test on RPMI-8226, 5.86 µM (inactive); with HT-29, 2.45 µM (inactive); in the test with HL-60, 0.411 µM (active); in the test on M19-MEL, 1.26 µM (inactive); in the test with NCI-H226, 7.83 µM (inactive). In addition, the GI50 was 1.79 µM (inactive) in the test on OVCAR-8 and 4.32 µM (inactive) in the test on SNB-75.

As for `CN[C@@H](C)[C@H](NC)c1ccccc1`, the GI50 with SN12C, in the test on CAKI-1, in the test with KM12, in the test on SK-MEL-5, in the test on K562 and with EKVX was > 100 µM (inactive) throughout. Also, the GI50 with UO-31, in the test with 786-0, with SK-MEL-28, in the test with UACC-62, in the test on RPMI-8226 and in the test on HT-29 was > 100 µM (inactive) throughout. Also, the GI50 with HL-60, with M19-MEL, with NCI-H226, in the test with OVCAR-8 and in the test on SNB-75 was > 100 µM (inactive) in each case.

With `C[C@@H]1OC2(O)[C@H]3CCCN3S(=O)(=O)CCN2C1=O` (stereo not given in full), the GI50 with SN12C, in the test on CAKI-1, in the test with KM12, in the test with SK-MEL-5, in the test on K562 and in the test on EKVX was > 100 µM (inactive) throughout. Also, the GI50 in the test with UO-31, with SF-268, in the test with 786-0, in the test with SK-MEL-28, with UACC-62 and in the test with RPMI-8226 was > 100 µM (inactive) each time. The GI50 in the test with HT-29, with HL-60, in the test on M19-MEL, in the test on NCI-H226, in the test with OVCAR-8 and in the test on SNB-75 was > 100 µM (inactive) throughout.

Regarding `CC12CCC3(C1)[C@H](CC2=O)C[C@@H](OC(=O)c1ccccc1)C1C(C)(CO)CCC[C@@]13C` (stereo not given in full), the GI50 in the test with SN12C was 4.35 µM (inactive); with CAKI-1, 0.861 µM (active); in the test with KM12, 2.9 µM (inactive); in the test with SK-MEL-5 it was < 0.01 µM (active); with K562, 0.416 µM (active); with EKVX it was 3.96 µM (inactive). Moreover, the GI50 with UO-31 is 4.15 µM (inactive); with SF-268 it was 5.11 µM (inactive); with 786-0, 1.82 µM (inactive); in the test with SK-MEL-28, 13.3 µM (inactive); in the test on UACC-62 it was 0.0288 µM (active); in the test on RPMI-8226, 0.746 µM (active). The GI50 in the test with HT-29 is 3.56 µM (inactive); with HL-60, 0.327 µM (active); with M19-MEL, 3.4 µM (inactive); in the test with NCI-H226, 1.6 µM (inactive); in the test with OVCAR-8, 3.13 µM (inactive); in the test on SNB-75 it was 9.14 µM (inactive).

On to `COc1cc([C@@H]2c3cc4c(c(O)c3C[C@H]3COC(=O)[C@@H]32)OCO4)cc(OC)c1OC` [BETA-PELTATIN A], for which the GI50 in the test with SN12C was 0.015 µM (active); with CAKI-1, 0.015 µM (active); with KM12, 0.015 µM (active); in the test on K562, 19.5 µM (inactive); in the test on EKVX, 0.282 µM (active); with UO-31, 0.0693 µM (active). Also, the GI50 in the test on SF-268 was 0.015 µM (active); with 786-0 it was 0.0241 µM (active); in the test on SK-MEL-28, 4.18 µM (inactive); in the test with Hs-578T, 0.0241 µM (active); in the test with RPMI-8226 it was 0.015 µM (active); with M19-MEL, 0.0548 µM (active). For the same compound, the GI50 is 0.302 µM (active) in the test with NCI-H226, 0.015 µM (active) in the test with OVCAR-8 and 1.61 µM (inactive) with SNB-75.
